From patent US8044088B2, “1-acetic acid-indole derivatives with PGD2 antagonist activity” (Oxagen Limited, priority 2005, dated 2011)

Experiments:
DP Receptor = target: T1, DP Receptor (Homo sapiens, UniProt Q13258); assay: Radioligand binding assay, [3H]PGD2, CHO/DP cell membranes; details: [3H]PGD2 displacement, membranes of CHO cells transfected with DP
T1 construct: expressed in transfected cells; host or cells: Chinese Hamster Ovary (CHO) cells, membranes
T1 sequence (Q13258 1-359): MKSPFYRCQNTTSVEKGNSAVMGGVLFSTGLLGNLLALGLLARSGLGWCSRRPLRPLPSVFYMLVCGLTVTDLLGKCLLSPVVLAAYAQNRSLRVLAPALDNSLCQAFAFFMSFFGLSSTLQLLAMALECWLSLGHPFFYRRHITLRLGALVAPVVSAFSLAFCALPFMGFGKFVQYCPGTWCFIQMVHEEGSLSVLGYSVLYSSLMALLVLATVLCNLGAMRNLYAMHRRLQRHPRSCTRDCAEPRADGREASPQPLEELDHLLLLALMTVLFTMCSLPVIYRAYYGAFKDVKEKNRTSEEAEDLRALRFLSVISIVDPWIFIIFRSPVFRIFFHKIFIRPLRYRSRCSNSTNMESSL
Experimental: (§1) Chinese Hamster Ovary cells were transfected with CRTH2 or DP receptors (CHO/CRTH2 and CHO/DP) and were maintained in culture in a humidified atmosphere at 37° C. (5% CO2) in Minimum Essential Medium (MEM) supplemented with 10% foetal bovine serum, 2 mM glutamine, and 1 mg ml^−1 active G418. The cells were passaged every 2-3 days. For radioligand binding assay, cells were prepared in triple-layer flasks or in 175 cm^2 square flasks (for membrane preparation). For calcium mobilisation assay, cells were grown in a 96 well plate 24h prior to the assay at a density of 80,000 cells per well.
(§2) Membranes were prepared either from CHO/CRTH2 and CHO/DP cells, or from platelets (as a source of TP receptors). CHO cells grown to confluency were washed with PBS and detached using a Versene solution (15 ml per flask). When the cells were grown in 175 cm^2 square flask, they were collected by scrapping in PBS. The cell suspensions were centrifuged (1,700 rpm, 10 min, 4° C.) and resuspended in 15 ml of buffer (1×HBSS, supplemented with 10 mM HEPES, pH 7.3). Cell suspensions were then homogenised using an Ultra Turrax at setting 4-6 for 20 s. The homogenate was centrifuged at 1,700 rpm for 10 min and the supernatant was collected and centrifuged at 20,000 rpm for 1 h at 4° C. The resulting pellet was resuspended in buffer and stored at −80° C. in aliquots of 200-500 μl. The protein concentration was determined by the method of Bradford (1976), using bovine serum albumin as standard. The platelets were washed by centrifugation at 600×g for 10 min and resuspended in ice-cold assay buffer (10 mM Tris-HCl, pH 7.4, 5 mM Glucose, 120 mM NaCl, 10 μM indomethacin) and directly centrifuged at 20,000 rpm for 30 min at 4° C. […]
(§3) [^3H]PGD2 (160 Ci/mmol) binding experiments were performed on membranes prepared as described above. […] The Unifilter plates were dried at room temperature for at least 1 h and the radioactivity retained on the filters was determined on a Beta Trilux counter (PerkinElmer Life Sciences), following addition of 40 μl of Optiphase Hi-Safe 3 (Wallac) liquid scintillation. […]

CRTH2 Receptor = target: T2, CRTH2 Receptor (Homo sapiens, UniProt Q9Y5Y4); assay: Radioligand binding assay, [3H]PGD2, CHO/CRTH2 cell membranes; details: [3H]PGD2 displacement, membranes of CHO cells transfected with CRTH2
T2 construct: expressed in transfected cells; host or cells: Chinese Hamster Ovary (CHO) cells, membranes
T2 sequence (Q9Y5Y4 1-395): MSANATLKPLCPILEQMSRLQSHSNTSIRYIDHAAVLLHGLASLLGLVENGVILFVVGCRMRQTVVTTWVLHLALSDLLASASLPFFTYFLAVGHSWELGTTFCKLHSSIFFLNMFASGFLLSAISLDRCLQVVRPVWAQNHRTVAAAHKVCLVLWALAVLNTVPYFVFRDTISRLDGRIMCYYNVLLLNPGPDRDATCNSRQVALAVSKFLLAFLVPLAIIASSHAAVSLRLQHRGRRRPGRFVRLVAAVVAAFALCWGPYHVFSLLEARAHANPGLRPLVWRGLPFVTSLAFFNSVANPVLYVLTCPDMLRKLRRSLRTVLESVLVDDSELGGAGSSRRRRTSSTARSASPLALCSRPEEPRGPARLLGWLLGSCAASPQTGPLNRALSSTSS
Experimental: as §1, §2, §3

Q: What does the source list for Cc1c(Cc2cccn2S(=O)(=O)c2ccccc2)c2cc(F)ccc2n1CC(=O)O [Compound 1, [3-(1-Benzenesulfonyl-1H-pyrrol-2-ylmethyl)-5-fluoro-2-methyl-indol-1-yl]-acetic acid]?
A: Ki (DP Receptor): 9.2 µM; Ki (CRTH2 Receptor): 0.001 µM

Q: Which results are given for Cc1ccc(S(=O)(=O)n2cccc2Cc2c(C)n(CC(=O)O)c3ccc(F)cc23)cc1 [Compound 2, {5-Fluoro-2-methyl-3-[1-(toluene-4-sulfonyl)-1H-pyrrol-2-ylmethyl]-indol-1-yl}-acetic acid]?
A: Ki (DP Receptor): 1.8 µM; Ki (CRTH2 Receptor): 0.0002 µM

Q: Which results are given for Cc1c(Cc2cccn2S(=O)(=O)c2ccc(F)cc2F)c2cc(F)ccc2n1CC(=O)O [Compound 3, {3-[1-(2,4-Difluoro-benzenesulfonyl)-1H-pyrrol-2-ylmethyl]-5-fluoro-2-methyl-indol-1-yl}-acetic acid]?
A: Ki (DP Receptor): 8 µM; Ki (CRTH2 Receptor): 0.002 µM
